Measurements from patent publication US5232923A, “Catechol derivatives and pharmaceutical preparations containing same” (Mitsui Toatsu Chemicals, Incorporated, priority 1988, dated 1993).
Read-outs that look alike come from different tables or passages of the source.

How the values were obtained:
[1] = test system: production and secretion of NGF in mouse brain astroglial cells; assay: Promoting activity for the production and secretion of NGF in mouse brain astroglial cells (ELISA of medium after 24 h); assay type: cell-based; conditions: for fold induction at 400 µM / fold induction at 200 µM: Mus musculus, 24 h, read-out: NGF Increase Ratio; for NGF Concentration: 24 hours
Procedure: Promoting activity for the production and secretion of NGF in mouse brain astroglial cells
The experiment was performed by inducing astroglial cells from the mouse forebrain to a culture system according to the procedures of S. Furukawa et al. which is described in Biochem. Biophys. Res. Commun., 136, 57-63 (1986).
Forebrains of 8-days old mice were dissected out and cut into small pieces. The pieces were washed with calcium- and magnesium-free phosphate-bufferedsaline (hereinafter abbreviated as PBS), treated with 0.25% trypsin containing PBS at 37° C. for 30 minutes and triturated with a Pasteur pipet to give a suspension. Cells and cell clumps were recovered by centrifugation at 200 xg for 5 minutes. They were cultured in Dulbecco modified Eagle's medium (a product of Gibco Co. hereinafter abbreviated as DMEM) containing 10% fetal calf serum, 50 μ units/ml of penicillin, and 50 μg/ml of streptomycin, for 10 to 14 days with medium changes every 3 days. After completing confluency, the cells were dissociated by trypsin treatment and recultured in new culture flasks. This procedure was repeated further twice and more. The culture became a uniform cell cluster. The cell cluster for use in this invention can be stained not less than 97% in accordance with the PAP staining method (peroxidase/[…] staining method) using anti-human glial fibrillar acidic protein (GFAP) rabbit antiserum. The cells will hereinafter be referred to as astroglial cells.
Astroglial cells were innoculated in 24-well plates having a well surface area of 2.1 cm^2 (a product of Falcon Co.) at a cell density of about 3×10^4 cells/well and cultured for 3 days in DMEM medium supplemented with 10% of fetal calf serum. After completing confluency about ([…]), the medium was changed to DMEM medium (0.5 ml/well) supplemented with 0.5% of bovine serum albumin (fraction V) and cultured for 3 days. The culture was further continued with medium changes every 3 days. After cells were practically synchronized in the quiscent stage, the medium was changed to 0.5 ml of the same medium and containing a prescribed concentration of test sample as illustrated in the Tables. NGF in the medium after cultivating for 24 hours was determined by the ELISA as mentioned above. Data are expressed as fold increase in NGF content over that in the absence of the test sample. The lower detection limit of the ELISA is 0.25 pg/ml and the NGF content of control medium was normally 1-10 pg/0.5 ml/well. Data are presented as the mean of four determinations. The results are illustrated in Tables 1-5.

[2] = test system: production and secretion of NGF in mouse L-M cells; assay: Promoting activity for the production and secretion of NGF in mouse L-M cells (ELISA of medium after 24 h); assay type: cell-based; conditions: for fold induction at 200 µM: Mus musculus, 24 h, read-out: NGF Increase Ratio; for NGF Concentration: 24 hours, mean of four determinations
Procedure: Promoting activity for the production and secretion of NGF in mouse L-M cells
The medium was cultured for 3 days at a temperature of 37° C. […] The sample of the derivative tested is contained in the medium at a prescribed concentration as illustrated in the Tables. […] Data are expressed as fold increase in NGF content of the medium over that cultivated in the absence of the derivative to be tested. […] Data are presented as the mean of four determinations. The results are illustrated in Tables 1-5.

[3] = Table 3, sample concentration 0.4 mM, fold increase over control (1.00)
[4] = Table 3, sample concentration 0.4 mM, control 42.3
[5] = Table 1, L-M cells, sample concentration 0.2 mM, fold increase over control (1.00)
[6] = Table 1, L-M cells, sample concentration 0.2 mM, control 0.33
[7] = Table 3, sample concentration 0.2 mM, fold increase over control (1.00)
[8] = Table 3, sample concentration 0.2 mM, control 42.3
[9] = Table 4, sample concentration 0.2 mM, fold increase over control
[10] = Table 4, sample concentration 0.2 mM
[11] = Table 2, L-M cells, sample concentration 0.2 mM, fold increase over control (1.00)
[12] = Table 2, L-M cells, sample concentration 0.2 mM, control 0.34

Row | Structure (SMILES) | fold induction at 400 µM [1, 3] | NGF Concentration [1, 4] [ng/well] | fold induction at 200 µM [2, 5] | NGF Concentration [2, 6] [ng/well] | fold induction at 200 µM [1, 7] | NGF Concentration [1, 8] [ng/well] | fold induction at 200 µM [2] | fold induction at 200 µM [1, 9] | NGF Concentration [1, 10] [ng/well] | fold induction at 200 µM [2, 11] | NGF Concentration [2, 12] [ng/well]
1 | CC(=O)NCCc1ccc(O)c(O)c1 [Compound 1, N-Acetyl-3,4-dihydroxyphenethylamine] | 4.94 | 208.8 | 9.24 | 3.05 | – | – | – | – | – | – | –
2 | CCCC(=O)NCCc1ccc(O)c(O)c1 [Compound 3] | – | – | 9.64 | 3.18 | 3.66 | 155.0 | – | – | – | – | –
3 | CC(=O)NCCCc1ccc(O)c(O)c1 [Compound 7] | 4.46 | 188.5 | 8.52 | 2.81 | – | – | – | – | – | – | –
4 | CC(=O)N(C)CCc1ccc(O)c(O)c1 [Compound 10] | 4.85 | 205.2 | 9.7 | 3.20 | – | – | – | – | – | – | –
5 | CCCC(=O)N(C)CCc1ccc(O)c(O)c1 [Compound 12] | 4.89 | 206.7 | 9.15 | 3.02 | – | – | – | – | – | – | –
6 | CC(=O)NCCc1ccc(OC(C)=O)c(OC(C)=O)c1 [Compound 13, N-Acetyl-3,4-diacetoxyphenethylamine] | 4.7 | 198.8 | 12.2 | 4.03 | – | – | – | – | – | – | –
7 | CCCC(=O)NCCc1ccc(OC(C)=O)c(OC(C)=O)c1 [Compound 15] | – | – | 8.94 | 2.95 | 3.74 | 158.2 | – | – | – | – | –
8 | CC(=O)NCCCc1ccc(OC(C)=O)c(OC(C)=O)c1 [Compound 17] | – | – | 8.64 | 2.85 | 4.27 | 180.6 | – | – | – | – | –
9 | Br.CCNCCc1ccc(O)c(O)c1 [Compound 19, N-Ethyl-3,4-dihydroxyphenethylamine hydrobromide] | 4.17 | 176.3 | – | 3.50 | – | – | 10.6 | – | – | – | –
10 | CCCCNCCc1ccc(O)c(O)c1 [Compound 21] | 4.91 | 207.5 | – | 3.80 | – | – | 11.5 | – | – | – | –
11 | CNCCCc1ccc(O)c(O)c1 [Compound 26] | 4.17 | 176.5 | 8.61 | 2.84 | – | – | – | – | – | – | –
12 | CCCCNCCCc1ccc(O)c(O)c1 [Compound 29] | 4.26 | 180.3 | 8.73 | 2.88 | – | – | – | – | – | – | –
13 | CCOC(=O)CCc1ccc(O)c(O)c1 [Compound 35] | – | – | – | – | – | – | – | 4.63 | 200.1 | 5.82 | 1.98
14 | CCCCOC(=O)CCc1ccc(O)c(O)c1 [Compound 37] | – | – | – | – | – | – | – | 4.83 | 208.5 | 5.44 | 1.85
15 | CCOC(=O)Cc1ccc(O)c(O)c1 [Compound 39] | – | – | – | – | – | – | – | 4.86 | 210.1 | 5.24 | 1.78
16 | CCOC(=O)CCCc1ccc(O)c(O)c1 [Compound 43] | – | – | – | – | – | – | – | 4.59 | 198.5 | 5.53 | 1.88
